Laboratory results: US7276511B2, “Benzylamine derivative” (Zeria Pharmaceutical Co., Ltd., priority 2003, dated 2007)
Counter-ions that a name gives are not always drawn.

The compounds below were run against T1, Cloned Neurokinin Receptor Subtype 2 Human (Homo sapiens, UniProt P21452) (assay: NK-2 receptor-binding experiment ([3H]-SR48968, CHO cell membranes)). Settings: Table 3; inhibition of [3H]-SR48968 (0.85 nM) binding, pseudo-Hill analysis.
T1 construct: purchased Biosignal Packard; host or cells: CHO cells
T1 sequence (P21452 1-398): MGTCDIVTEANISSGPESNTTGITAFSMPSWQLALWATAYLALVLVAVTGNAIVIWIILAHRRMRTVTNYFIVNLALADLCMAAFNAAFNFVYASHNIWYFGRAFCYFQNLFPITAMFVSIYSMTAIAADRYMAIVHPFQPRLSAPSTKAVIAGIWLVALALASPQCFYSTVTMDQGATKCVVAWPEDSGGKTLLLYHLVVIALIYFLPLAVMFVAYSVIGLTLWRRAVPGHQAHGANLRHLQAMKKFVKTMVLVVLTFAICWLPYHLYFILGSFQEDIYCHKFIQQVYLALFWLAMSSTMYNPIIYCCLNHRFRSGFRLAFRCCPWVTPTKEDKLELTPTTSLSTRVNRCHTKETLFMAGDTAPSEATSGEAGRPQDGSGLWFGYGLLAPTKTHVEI
Experimental: 2. NK-2 Receptor-binding Experiment
Cloned Neurokinin Receptor Subtype 2 Human (CHO cells, Biosignal Packard), [^3H]-SR48968 (Amersham, final concentration 0.85 nM), and a test compound were mixed with 20 mM HEPES buffer, and the mixture was incubated for 50 minutes at 27° C. After completion of incubation, membrane components were collected by means of an automatic filtration apparatus (Brandel) onto a GF/C glass fiber filter (Whatman).
Before use, in order to prevent non-specific binding, the glass fiber filter had been pre-treated with 0.1% polyethylene imine solution for about 4 hours.
The filter employed to collect the membrane components was transferred to a plastic vial containing UltimaGold MV (5 mL), and measured by means of a liquid scintillation counter (Packard, 2000CA) in terms of the radioactivity.
Percent radioactive ligand-receptor binding inhibition of each test compound was calculated by use of the following equation, and IC50 (nM) was determined through pseudo-Hill analysis.
Percent inhibition (%)=[1−(C−A)/(B−A)]×100
A: Radioactivity attributed to non-specific binding
B: Radioactivity without test compound
C: Radioactivity with test compound

IC50 [nM]	Structure (SMILES)
0.73	CCN(C(=O)C(=O)N(C)[C@](CCN1CCC2(CC1)NC(=O)Cc1ccccc12)(CN(C)C(=O)C(C)C)c1ccc(Cl)c(Cl)c1)c1ccccc1 [Compound No. 40, N^1-{1-(N-methylisobutylamide)-2-(S)-(3,4-dichlorophenyl)-4-[3-oxo-3,4-dihydro-2H-spiro(isoquinoline-1,4′-piperidin)-1′-yl]butan-2-yl}-N^1-methyl-N^2-ethyl-N^2-phenyloxalamide hydrochloride]
0.58	CCN(C(=O)C(=O)N(C)[C@](CCN1CCC2(CC1)c1ccccc1C[S@+]2[O-])(CN(C)C(=O)CC(F)(F)F)c1ccc(Cl)c(Cl)c1)c1ccccc1 [Compound No. 25, N^1-{1-(3,3,3-trifluoro-N-methylpropanamido)-2-(S)-(3,4-dichlorophenyl)-4-[spiro(benzo(c)thiophene-(2S)-oxido-1(3H),4′-piperidin)-1′-yl]butan-2-yl}-N^1-methyl-N^2-ethyl-N^2-phenyloxalamide hydrochloride]
1	CCN(C(=O)C(=O)N(C)[C@](CCN1CCC2(CC1)c1ccccc1C[S@+]2[O-])(CN(C)C(=O)C(C)C)c1ccc(Cl)c(Cl)c1)c1ccccc1 [Compound No. 39, N^1-{1-(N-methylisobutylamide)-2-(S)-(3,4-dichlorophenyl)-4-[spiro(benzo(c)thiophene-(2S)-oxido-1(3H),4′-piperidin)-1′-yl]butan-2-yl}-N^1-methyl-N^2-ethyl-N^2-phenyloxalamide hydrochloride]
0.85	CN(C[C@](CCN1CCC2(CC1)c1ccccc1C[S@+]2[O-])(c1ccc(Cl)c(Cl)c1)N(C)C(=O)c1ccccc1)C(=O)C(F)(F)F [Compound No. 26, N-{1-(2,2,2-trifluoro-N-methylacetamide)-2-(S)-(3,4-dichlorophenyl)-4-[spiro(benzo(c)thiophene-(2S)-oxido-1(3H),4′-piperidin)-1′-yl]butan-2-yl}-N-methylbenzamide hydrochloride]
1	CC(C)C(=O)N(C)C[C@](CCN1CCC2(CC1)c1ccccc1C[S@+]2[O-])(c1ccc(Cl)c(Cl)c1)N(C)C(=O)c1ccccc1 [Compound No. 32, N-{1-(N-methylisobutylamide)-2-(S)-(3,4-dichlorophenyl)-4-[spiro(benzo(c)thiophene-(2S)-oxido-1(3H),4′-piperidin)-1′-yl]butan-2-yl}-N-methylbenzamide hydrochloride]
0.65	CC(C)C(=O)N(C)C[C@](CCN1CCC2(CC1)c1ccccc1C[S@+]2[O-])(c1ccc(Cl)c(Cl)c1)N(C)C(=O)C(=O)N(C)c1ccccc1 [Compound No. 33, N^1-{1-(N-methylisobutylamide)-2-(S)-(3,4-dichlorophenyl)-4-[spiro(benzo(c)thiophene-(2S)-oxido-1(3H), 41-piperidin)-1′-yl]butan-2-yl}-N^1,N^2-dimethyl-N^2-phenyloxalamide hydrochloride]
1.8	CCN(C(=O)C(=O)N(C)[C@](CCN1CCC2(CC1)c1ccccc1C[S@+]2[O-])(CN(C)C(=O)C(C)(C)C)c1ccc(Cl)c(Cl)c1)c1ccccc1 [Compound No. 37, N^1-{[1-(N-methyl-trimethylacetamide)-2-(S)-(3,4-dichlorophenyl)-4-[spiro(benzo(c)thiophene-(2S)-oxido-1(3H),4′-piperidin)-1′-yl]butan-2-yl}-N^1-methyl-N^2-ethyl-N^2-phenyloxalamide hydrochloride]

Further lines, the compound ahead of its results:

Structure (SMILES)	IC50 [nM]
CN(CC(CCN1CCC2(CC1)c1ccccc1C[S+]2[O-])(c1ccc(Cl)c(Cl)c1)N(C)C(=O)C(=O)Nc1ccccc1Cl)C(=O)CC(F)(F)F [Compound No. 9, N-(2-Chloro-phenyl)-N′-{1-(3,4-dichloro-phenyl)-1-{[methyl-(3,3,3-trifluoro-propionyl)-amino]-methyl}-3-{spiro[benzo(c)thiophene-1(3H),4′-piperidine]-(2S)-oxido}-1′-yl-propyl}-N′-methyl-oxalamide hydrochloride]	7.2
CC(=O)N(C)C[C@](CCN1CCC2(CC1)NC(=O)Cc1ccccc12)(c1ccc(Cl)c(Cl)c1)N(C)C(=O)c1ccccc1 [Compound No. 36, N-{1-(N-methyl-acetamide)-2-(S)-(3,4-dichlorophenyl)-4-[3-oxo-3,4-dihydro-2H-spiro(isoquinoline-1,4′-piperidin)-1′-yl]butan-2-yl}-N-methylbenzamide hydrochloride]	0.85
CCOC(=O)C(=O)N(C)C(CCN1CCC2(CC1)c1ccccc1C[C@@H]2O)(COCc1cc(OC)c(OC)c(OC)c1)c1ccc(Cl)c(Cl)c1 (mixture of isomers) [Compound No. 21, N-[1-(3,4-Dichloro-phenyl)-3-{spiro[((2S)-hydroxy)indan-1,4′-piperidine]}-1′-yl-1-(3,4,5-trimethoxy-benzyloxymethyl)-propyl]-N-methyl-oxamic acid ethyl ester hydrochloride]	8.7
CN(CC(CCN1CCC2(CC1)NC(=O)Cc1ccccc12)(c1ccc(Cl)c(Cl)c1)N(C)C(=O)NC(c1ccccc1)c1ccccc1)C(=O)C(F)(F)F (stereo not drawn) [Compound No. 3, N-{2-(3-benzhydryl-1-methylureido)-2-(3,4-dihydrodichlorophenyl)-4-{spiro[isoquinoline-1(2H),4′-piperidine]-3(4H)-one}-1′-yl-butyl}-2,2,2-trifluoro-N-methyl-acetamide hydrochloride]	1.7
CN(CC(CCN1CCC2(CC1)c1ccccc1CS2(=O)=O)(c1ccc(Cl)c(Cl)c1)N(C)C(=O)NC(c1ccccc1)c1ccccc1)C(=O)C(F)F (stereo not drawn) [Compound No. 11, N-[2-(3-Benzhydryl-1-methyl-ureido)-2-(3,4-dichloro-phenyl)-4-{spiro[benzo(c)thiophene-1(3H),4′-piperidine]-2,2-dioxido}-1′-yl-butyl]-2,2-difluoro-N-methyl-acetamide hydrochloride]	8.1
CN(C[C@](CCN1CCC2(CC1)c1ccccc1CS2(=O)=O)(c1ccc(Cl)c(Cl)c1)N(C)C(=O)Cc1ccccc1)C(=O)CC(F)(F)F [Compound No. 28, N-(1-(3,3,3-trifluoro-N-methylpropanamido)-2-(S)-(3,4-dichlorophenyl)-4-[spiro(benzo(c)thiophene-2,2-dioxido-1(3H),4′-piperidin)-1′-yl]butan-2-yl}-N-methyl-phenylacetamide hydrochloride]	2.6
CN(CC(CCN1CCC2(CC1)c1ccccc1C[S+]2[O-])(c1ccc(Cl)c(Cl)c1)N(C)C(=O)c1ccccc1)C(=O)CC(F)(F)F [Compound No. 13, N-{1-(3,4-Dichloro-phenyl)-1-{[methyl-(3,3,3-trifluoro-propionyl)-amino]-methyl}-3-{spiro[benzo(c)thiophene-1(3H),4′-piperidine]-(2S)-oxido}-1′-yl-propyl}-N-methyl-benzamide hydrochloride]	2.6
CCN(C(=O)C(=O)N(C)[C@](CCN1CCC2(CC1)NC(=O)Cc1ccccc12)(CN(C)C(=O)CC(F)(F)F)c1ccc(Cl)c(Cl)c1)c1ccccc1 [Compound No. 41, N^1-{1-(3,3,3-trifluoro-N-methylpropanamido)-2-(S)-(3,4-dichlorophenyl)-4-[3-oxo-3,4-dihydro-2H-spiro(isoquinoline-1,4′-piperidin)-1′-yl]butan-2-yl}-N^1-methyl-N^2-ethyl-N^2-phenyloxalamide hydrochloride]	0.84
CN(C[C@](CCN1CCC2(CC1)c1ccccc1C[S@+]2[O-])(c1ccc(Cl)c(Cl)c1)N(C)C(=O)c1ccc(C(F)(F)F)cc1)C(=O)CC(F)(F)F [Compound No. 31, N-{1-(3,3,3-trifluoro-N-methylpropanamido)-2-(S)-(3,4-dichlorophenyl)-4-[spiro(benzo(c)thiophene-(2S)-oxido-1(3H),4′-piperidin)-1′-yl]butan-2-yl}-N-methyl-4-trifluoromethylbenzamide hydrochloride]	0.75
CN(C[C@](CCN1CCC2(CC1)NC(=O)Cc1ccccc12)(c1ccc(Cl)c(Cl)c1)N(C)C(=O)C(=O)Nc1ccccc1)C(=O)C(F)(F)F [Compound No. 29, N^1-{1-(2,2,2-trifluoro-N-methylacetamide)-2-(S)-(3,4-dichlorophenyl)-4-[3-oxo-3,4-dihydro-2H-spiro(isoquinoline-1,4′-piperidin)-1′-yl]butan-2-yl}-N^1-methyl-N^2-phenyloxalamide hydrochloride]	4
CN(CC(CCN1CCC2(CC1)c1ccccc1C[S+]2[O-])(c1ccc(Cl)c(Cl)c1)N(C)C(=O)Cc1ccccc1)C(=O)CC(F)(F)F [Compound No. 14, N-[2-(3,4-Dichloro-phenyl)-2-(methyl-phenylacetyl-amino)-4-{spiro[benzo(c)thiophene-1(3H),4′-piperidine]-(2S)-oxido}-1′-yl-butyl]-3,3,3-trifluoro-N-methyl-propionamide hydrochloride]	0.34
